# Experimental data published in publication PMC3096752 (Clinical cancer research : an official journal of the …, 2011).
# What was measured:
# [1] = tested on: patients with B cell malignancies (multiple myeloma, indolent and mantle cell lymphoma); experiment: Phase I 3+3 dose escalation: DLT and MTD; type: in vivo, human
# [2] = tested on: refractory/relapsed indolent NHL (including follicular, marginal zone and SLL); conditions: cited from earlier work
# [3] = tested on: mantle cell lymphoma; conditions: bortezomib alone; cited from earlier work
# [4] = tested on: refractory/relapsed MM; conditions: cited from earlier work
# [5] = Alvocidib plasma pharmacokinetics; type: in vivo, human; conditions: mean ± SD
# [6] = Dose Level 1 (n=8 doses): alvocidib 20+20 mg/m^2
# [7] = Dose Level 2 (n=6 doses): alvocidib 30+30 mg/m^2
# [8] = Dose Level 3 (n=3 doses): alvocidib 30+50 mg/m^2
Structure (SMILES),"MTD, bortezomib ([1]; IV push days 1, 4, 8, 11, 21 day cycle, in combination with alvocidib) [mg/m^2]",response rates to single agent bortezomib [2],single-agent activity (response rate) [3],responses to single-agent bortezomib [4],"MTD, alvocidib 4 hour infusion ([1]; days 1 and 8, 21 day cycle, after the 30 min bolus, in combination with bortezomib) [mg/m^2]","MTD, alvocidib 30 min bolus infusion ([1]; days 1 and 8, 21 day cycle, in combination with bortezomib) [mg/m^2]","CL [5, 6]","K10 [5, 6] [h⁻¹]","V1 [5, 6]","CL [5, 7]","K10 [5, 7] [h⁻¹]","V1 [5, 7]","CL [5, 8]","K10 [5, 8] [h⁻¹]","V1 [5, 8]","V2 [5, 8]"
CC(C)C[C@H](NC(=O)[C@H](Cc1ccccc1)NC(=O)c1cnccn1)B(O)O [bortezomib],1.3,approximately 13.3%,approximately 33%,approximately 35%,–,–,–,–,–,–,–,–,–,–,–,–
CN1CC[C@H](c2c(O)cc(O)c3c(=O)cc(-c4ccccc4Cl)oc23)[C@H](O)C1 [alvocidib],–,–,–,–,30,30,"13,243 ± 2,540 ml/h/m^2",0.803 ± 0.237,"18,512 ± 8,687 ml/m^2","12,825 ± 3,267 ml/h/m^2",1.04 ± 0.438,"14,888 ± 7,685 ml/m^2","18,137 ± 8,097 ml/h/m^2",0.569 ± 0.169,"31,380 ± 7,368 ml/m^2","48,448 ± 23,397 ml/m^2"
